Laboratory results published in the NIST ThermoML archive (doi:10.1021/je400122k).

Conditions: Liquid; for speed of sound: Pulse-echo method; for mass density: Vibrating tube method

CCCCCCCCCCCCCC(=O)OC [methyl tetradecanoate]
Conditions | mass density [kg/m3] | speed of sound [m/s]
303.15 K, 100 kPa | – | 1335.8
303.15 K, 101.3 kPa | 859.7 | –
303.15 K, 10000 kPa | 866.3 | 1382.9
303.15 K, 20000 kPa | 872.4 | 1426.9
303.15 K, 30000 kPa | 878.2 | 1468.1
303.15 K, 40000 kPa | 883.7 | 1507.6
303.15 K, 50000 kPa | 888.9 | 1544.9
303.15 K, 60000 kPa | 893.8 | 1580.2
303.15 K, 70000 kPa | 898.5 | 1614.2
313.15 K, 101.3 kPa | 851.6 | –
313.15 K, 10000 kPa | 858.2 | –
313.15 K, 20000 kPa | 864.7 | –
313.15 K, 30000 kPa | 870.7 | –
313.15 K, 40000 kPa | 876.4 | –
313.15 K, 50000 kPa | 881.7 | –
313.15 K, 60000 kPa | 886.8 | –
313.15 K, 70000 kPa | 891.7 | –
313.15 K, 80000 kPa | 896.3 | –
323.15 K, 100 kPa | – | 1264
323.15 K, 101.3 kPa | 843.3 | –
323.15 K, 10000 kPa | 850.5 | 1316.4
323.15 K, 20000 kPa | 857.2 | 1364.8
323.15 K, 30000 kPa | 863.5 | 1409.6
323.15 K, 40000 kPa | 869.4 | 1451.9
323.15 K, 50000 kPa | 874.9 | 1492.5
323.15 K, 60000 kPa | 880.2 | 1530.5
323.15 K, 70000 kPa | 885.2 | 1566.8
323.15 K, 80000 kPa | 889.9 | 1601.2
333.15 K, 101.3 kPa | 835.2 | –
333.15 K, 10000 kPa | 843 | –
333.15 K, 20000 kPa | 850.1 | –
333.15 K, 30000 kPa | 856.6 | –
333.15 K, 40000 kPa | 862.7 | –
333.15 K, 50000 kPa | 868.4 | –
333.15 K, 60000 kPa | 873.8 | –
333.15 K, 70000 kPa | 879 | –
333.15 K, 80000 kPa | 883.9 | –
343.15 K, 100 kPa | – | 1195.7
343.15 K, 101.3 kPa | 827.9 | –
343.15 K, 10000 kPa | 835.7 | 1251.2
343.15 K, 20000 kPa | 843.1 | 1302.9
343.15 K, 30000 kPa | 849.8 | 1350.8
343.15 K, 40000 kPa | 856.2 | 1396
343.15 K, 50000 kPa | 862.1 | 1437.4
343.15 K, 60000 kPa | 867.7 | 1477.5
343.15 K, 70000 kPa | 873 | 1515
343.15 K, 80000 kPa | 878 | 1550.8
353.15 K, 101.3 kPa | 820.2 | –
353.15 K, 10000 kPa | 828.5 | –
353.15 K, 20000 kPa | 836.1 | –
353.15 K, 30000 kPa | 843.2 | –
353.15 K, 40000 kPa | 849.8 | –
353.15 K, 50000 kPa | 855.9 | –
353.15 K, 60000 kPa | 861.6 | –
353.15 K, 70000 kPa | 867.1 | –
353.15 K, 80000 kPa | 872.3 | –
363.15 K, 100 kPa | – | 1130.9
363.15 K, 101.3 kPa | 812.6 | –
363.15 K, 10000 kPa | 821.2 | 1190.4
363.15 K, 20000 kPa | 829.2 | 1245.2
363.15 K, 30000 kPa | 836.6 | 1295.9
363.15 K, 40000 kPa | 843.4 | 1342.5
363.15 K, 50000 kPa | 849.7 | 1385.7
363.15 K, 60000 kPa | 855.6 | 1426.7
363.15 K, 70000 kPa | 861.2 | 1465.5
363.15 K, 80000 kPa | 866.6 | 1502.6
373.15 K, 101.3 kPa | 804.6 | –
373.15 K, 10000 kPa | 813.9 | –
373.15 K, 20000 kPa | 822.2 | –
373.15 K, 30000 kPa | 829.9 | –
373.15 K, 40000 kPa | 836.9 | –
373.15 K, 50000 kPa | 843.5 | –
373.15 K, 60000 kPa | 849.6 | –
373.15 K, 70000 kPa | 855.3 | –
373.15 K, 80000 kPa | 860.8 | –
383.15 K, 100 kPa | – | 1066.7
383.15 K, 101.3 kPa | 796.4 | –
383.15 K, 10000 kPa | 806.3 | 1131.3
383.15 K, 20000 kPa | 815.1 | 1189.6
383.15 K, 30000 kPa | 823 | 1242.9
383.15 K, 40000 kPa | 830.3 | 1291.7
383.15 K, 50000 kPa | 837.1 | 1338
383.15 K, 60000 kPa | 843.4 | 1380.3
383.15 K, 70000 kPa | 849.3 | 1420.4
383.15 K, 80000 kPa | 854.9 | 1457.6
393.15 K, 100 kPa | – | 1036.2
393.15 K, 101.3 kPa | 788.5 | –
393.15 K, 10000 kPa | 798.6 | 1103.6
393.15 K, 20000 kPa | 807.7 | 1163.5
393.15 K, 30000 kPa | 815.9 | 1217.8
393.15 K, 40000 kPa | 823.5 | 1267.7
393.15 K, 50000 kPa | 830.5 | 1314.4
393.15 K, 60000 kPa | 837 | 1357.8
393.15 K, 70000 kPa | 843.1 | 1397.8
393.15 K, 80000 kPa | 848.8 | 1436.8
